{
  "source": "patent US20160051556A1",
  "about": "“Method and Pharmaceutical Composition for use in the Treatment of Chronic Liver Diseases Associated with a Low Hepcidin Expression” (INSERM (INSTITUT NATIONAL DE LA SANTÉ ET DE LA RECHERCHE …, priority 2013, published 2016)",
  "type_in_all_cases": "in vivo, mouse",
  "key": {"Hamp mRNA": {"system": "Hamp mRNA", "assay": "Liver Hamp mRNA by qRT-PCR in Bmp6-/- males treated with gefitinib", "details": "7 w.o. Bmp6-/- males", "method": "(§1) Bmp6 null mice (Bmp^6mlRob) obtained from E. Robertson and wild-type controls on a CD1 background were sacrificed at 7, 12, or 30 weeks of age. Liver, spleen, heart, pancreas and kidney samples were dissected for RNA isolation, flash frozen in liquid nitrogen and stored at −80° C. Hamp-deficient mice were kindly provided by S. Vaulont. They were derived on a C57BL/6 background in the lab of T. Ganz. Gonadectomies and sham operations were performed under anesthesia at 4 weeks of age. Testosterone (10 mg/kg; Sigma) was suspended in corn oil and a total volume of 60 μL per mouse was injected sc everyday for a week. To investigate the role of erythropoiesis in the down-regulation of hepcidin by testosterone, Bmp6−/− females were whole-body irradiated with a sublethal dose of 60Co (6 Gy) on day 1, administered daily doses of testosterone (1 μg/g) starting on day 2, and sacrificed on day 8. To investigate the effect of EGF signaling on testosterone-induced hepcidin down-regulation, the selective EGFR inhibitor Gefitinib (Iressa) was stirred into 1% Tween 80 and administered orally daily from days −1 to 7 to Bmp6−/− males (200 mg/kg; Euromedex). Mice were housed under controlled lighting and temperature conditions, fed a chow of normal iron content (250 mg iron/kg; SAFE, Augy, France) ad libidum, and were fasted for 14 h before they were killed. Experimental protocols were approved by the Midi-Pyrenees Animal Ethics Committee.\n(§2) Total RNA from mouse liver was extracted using Trizol (Invitrogen). cDNA was synthesized using MMLV-RT (Promega). The sequences of the primers for target genes and the reference gene Hprt are listed in supplemental Table 1. Quantitative PCR reactions were prepared with LightCycler 480 DNA SYBR Green I Master reaction mix (Roche Diagnostics, Mannheim, Germany) and run in duplicate on a LightCycler 480 Instrument (Roche Diagnostics).\n(§3) Data were first normalized to the invariant control Hprt and, for each sample and each target gene, −ΔCt=−[Ct target gene−Ct Hprt] was calculated. Because the numerical value of Ct is inversely related to the amount of amplicon in the reaction, the higher the −ΔCt value, the greater the amount of target amplicon. Values shown are means±SEM. Target gene expression in an individual is proportional to 2^−ΔCt. However, individual expression values are usually shown on a log scale and, because log 2 (2^−ΔCt)[…], −ΔCt data rather than 2^−ΔCt data are plotted on the y-axes. An increase of 1 on the y-axis thus corresponds to a 2-fold increase in target gene expression. ΔCt data are the observed values from experimental procedures and it is recommended that ΔCt data rather 2−ΔCt data be the subject of statistical analysis (41). […]"}, "Hepcidin (Hamp) mRNA": {"system": "Hepcidin (Hamp) mRNA", "assay": "Liver hepcidin (Hamp) mRNA by qRT-PCR after testosterone administration to ovariectomized Bmp6-/- mice"}, "Egfr mRNA": {"system": "Egfr mRNA", "assay": "Liver Egfr mRNA by qRT-PCR after testosterone administration to gonadectomized Bmp6-/- females", "method": "as §1, §2, §3"}, "C-terminal phospho-Smad5": {"system": "C-terminal phospho-Smad5", "assay": "C-terminal phospho-Smad5 immunoblot of liver extracts, gonadectomized Bmp6-/- females treated with testosterone", "details": "administration of testosterone to Bmp6-/- females", "method": "as §1, with “Mice were housed under controlled lighting and temperature conditions, fed a chow of normal iron content (250 mg iron/kg; SAFE, Augy, France) ad libidum, and were fasted for 14 h before they were killed. Experimental protocols were approved by the Midi-Pyrenees Animal Ethics Committee.” left out\n(§4) Livers were homogeneized in a FastPrep®-24 Instrument (MP Biomedicals) for 15 sec at 4 m/s. […] Liver proteins were quantified using a protein assay kit (Bio-Rad). […]"}, "C-terminal phospho-Smad2": {"system": "C-terminal phospho-Smad2", "assay": "C-terminal phospho-Smad2 immunoblot of liver extracts, gonadectomized Bmp6-/- females treated with testosterone", "details": "administration of testosterone to Bmp6-/- females", "method": "as §1, with “Mice were housed under controlled lighting and temperature conditions, fed a chow of normal iron content (250 mg iron/kg; SAFE, Augy, France) ad libidum, and were fasted for 14 h before they were killed. Experimental protocols were approved by the Midi-Pyrenees Animal Ethics Committee.” left out\nas §4"}, "[1]": {"details": "gefitinib 200 mg/kg orally daily for 7 days"}, "[2]": {"details": "non-irradiated 7 w.o. ovariectomized Bmp6-/- mice, testosterone propionate 10 mg/kg sc daily for 7 days"}, "[3]": {"details": "whole-body irradiated ovariectomized Bmp6-/- mice, daily testosterone days 2 to 8"}, "[4]": {"details": "gonadectomized Bmp6-/- females, testosterone for a week"}},
  "data": [
    {"smiles": "COc1cc2ncnc(Nc3ccc(F)c(Cl)c3)c2cc1OCCCN1CCOCC1", "note": "[gefitinib, 4-quinazolinamine, N-(3-chloro-4-fluorophenyl)-7-methoxy-6-[3-(4-morpholinyl)propoxy]-(9CI)]", "values": [
      {"measurement": "Hamp mRNA -ΔΔCt (gefitinib vs vehicule)", "setting": "Hamp mRNA; [1]", "value": 2.76},
      {"measurement": "Hamp mRNA mean -ΔCt (Ct Hprt - Ct Hamp)", "setting": "Hamp mRNA; [1]", "value": 4.02},
      {"measurement": "Hamp expression on average higher than in mice treated with vehicule", "setting": "Hamp mRNA; gefitinib 200 mg/kg orally daily for 7 days, liver mRNA", "value": 6.8, "unit": "fold"},
      {"measurement": "Effect on Hamp mRNA levels (in words)", "setting": "Hamp mRNA; gefitinib daily for 7 days", "value": "significant induction of Hamp mRNA levels"}
    ]},
    {"smiles": "CCC(=O)O[C@H]1CC[C@H]2[C@@H]3CCC4=CC(=O)CC[C@]4(C)[C@H]3CC[C@]12C", "note": "[testosterone, testosterone propionate]", "values": [
      {"measurement": "Effect on hepcidin expression in irradiated mice (in words)", "setting": "Hepcidin (Hamp) mRNA; irradiated ovariectomized Bmp6-/- females, testosterone propionate 10 mg/kg days 2 to 8", "value": "downregulation of hepcidin expression to levels similar to those observed in non irradiated control mice"},
      {"measurement": "Hamp mRNA -ΔΔCt (testosterone vs vehicule)", "setting": "Hepcidin (Hamp) mRNA; [2]", "value": "−3.95"},
      {"measurement": "Hamp mRNA mean -ΔCt (Ct Hprt - Ct Hamp)", "setting": "Hepcidin (Hamp) mRNA; [2]", "value": 1.27},
      {"measurement": "Hepcidin expression repressed on average (vs vehicule)", "setting": "Hepcidin (Hamp) mRNA; non-irradiated 7 w.o. ovariectomized Bmp6-/- mice, testosterone propionate 10 mg/kg sc daily for 7 days, liver mRNA", "value": 15.4, "unit": "fold"},
      {"measurement": "Hepcidin expression reduced on average (vs vehicule)", "setting": "Hepcidin (Hamp) mRNA; whole-body irradiated (60Co, 6 Gy) ovariectomized Bmp6-/- mice, daily testosterone days 2 to 8", "value": 16.3, "unit": "fold"},
      {"measurement": "Hamp mRNA -ΔΔCt (testosterone vs vehicule)", "setting": "Hepcidin (Hamp) mRNA; [3]", "value": "−4.03"},
      {"measurement": "Hamp mRNA mean -ΔCt (Ct Hprt - Ct Hamp)", "setting": "Hepcidin (Hamp) mRNA; [3]", "value": 0.81},
      {"measurement": "Egfr mRNA -ΔΔCt (testosterone vs vehicule)", "setting": "Egfr mRNA; [4]", "value": 1.72},
      {"measurement": "Egfr mRNA mean -ΔCt (Ct Hprt - Ct Egfr)", "setting": "Egfr mRNA; [4]", "value": 0.88},
      {"measurement": "Egfr expression increased on average (vs vehicule)", "setting": "Egfr mRNA; gonadectomized Bmp6-/- females, testosterone for a week, liver mRNA", "value": 3.3, "unit": "fold"},
      {"measurement": "Effect on liver Egfr expression (in words)", "setting": "Egfr mRNA; ovariectomized Bmp6-/- females treated with testosterone for a week", "value": "induced"},
      {"measurement": "C-terminal Smad phosphorylation (Smad5) in liver (in words)", "setting": "C-terminal phospho-Smad5", "value": "reduced"},
      {"measurement": "C-terminal Smad2 phosphorylation in liver (in words)", "setting": "C-terminal phospho-Smad2", "value": "increased"}
    ]}
  ]
}
